Experimental data from patent US10829481B2, “Benzimidazole derivatives as modulators of ROR-gamma” (Vitae Pharmaceuticals, LLC, priority 2016, dated 2020).

What was measured:
[1] = molecular target: full-length RORγt in Jurkat cells (Homo sapiens (Human), UniProt P51449); assay: RORγt 5×RORE Assay in Jurkat Cells (Assay 2); type: cell-based; conditions: 5×RORE Nanoluc luciferase reporter
[2] = molecular target: recombinant RORγ Ligand Binding Domain (LBD) protein (Homo sapiens (Human), UniProt P51449); assay: Radio-Ligand RORγ Binding Assay (Assay 1); conditions: competition with 25-hydroxy [26,27-3H]-cholesterol, SPA
How it was run: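 His-GST-fused RORγ ligand-binding domain (24 nM solution) competed between compounds and tritiated 25-hydroxycholesterol (8.6 nM solution), read by SPA after brief rt incubations in pH 7.4 HEPES/glycerol/detergent buffer. Four-parameter curve fitting gave IC50 at inflection, converted to Ki using radioligand concentration and KD.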

Chain of full-length RORγt in Jurkat cells (P51449 other isoform, or with tags, fused parts or gaps): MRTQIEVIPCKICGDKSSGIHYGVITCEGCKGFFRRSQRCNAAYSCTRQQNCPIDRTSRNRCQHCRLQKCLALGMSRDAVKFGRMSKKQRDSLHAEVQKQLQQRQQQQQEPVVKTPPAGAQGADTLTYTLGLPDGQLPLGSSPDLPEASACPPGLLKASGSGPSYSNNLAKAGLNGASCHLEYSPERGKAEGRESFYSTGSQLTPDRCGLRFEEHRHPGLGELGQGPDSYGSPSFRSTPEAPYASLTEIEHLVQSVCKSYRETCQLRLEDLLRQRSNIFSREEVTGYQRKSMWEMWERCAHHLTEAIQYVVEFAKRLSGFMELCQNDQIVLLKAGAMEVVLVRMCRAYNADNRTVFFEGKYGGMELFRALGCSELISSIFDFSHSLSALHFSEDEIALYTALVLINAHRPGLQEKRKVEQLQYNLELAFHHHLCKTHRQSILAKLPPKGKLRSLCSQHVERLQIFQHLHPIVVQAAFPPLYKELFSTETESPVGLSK
Chain of recombinant RORγ Ligand Binding Domain (LBD) protein (P51449 269-508): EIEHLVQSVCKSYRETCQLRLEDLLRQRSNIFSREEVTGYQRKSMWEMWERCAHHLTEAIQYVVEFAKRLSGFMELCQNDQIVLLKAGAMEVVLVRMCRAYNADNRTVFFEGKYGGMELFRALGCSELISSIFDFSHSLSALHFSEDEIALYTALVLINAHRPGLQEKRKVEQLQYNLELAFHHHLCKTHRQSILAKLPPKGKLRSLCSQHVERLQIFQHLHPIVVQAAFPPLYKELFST

Structure (SMILES)	IC50 [1]	Ki [2]
CCS(=O)(=O)c1ccc(CNC(=O)c2ccc3c(c2)nc(C(F)(F)F)n3Cc2cccc(C#N)c2)cc1 [I-90, 1-(3-cyanobenzyl)-N-(4-(ethylsulfonyl)benzyl)-2-(trifluoromethyl)-1H-benzo[d]imidazole-5-carboxamide]	< 100 nM	< 100 nM
CCS(=O)(=O)c1ccc(CNC(=O)c2ccc3c(c2)nc(C(F)(F)F)n3C2(c3cccc(C#N)c3)CC2)cc1 [I-92, 1-(1-(3-cyanophenyl)cyclopropyl)-N-(4-(ethylsulfonyl)benzyl)-2-(trifluoromethyl)-1H-benzo[d]imidazole-5-carboxamide]	100 to 1000 nM	< 100 nM
CCS(=O)(=O)c1ccc(CNC(=O)c2ccc3c(c2)nc(C(F)(F)F)n3[C@@H](C)c2cccc(C#N)c2)cc1 [I-93.1, (S)-1-(1-(3-cyanophenyl)ethyl)-N-(4-(ethylsulfonyl)benzyl)-2-(trifluoromethyl)-1H-benzo[d]imidazole-5-carboxamide]	< 100 nM	< 100 nM
CCS(=O)(=O)c1ccc(CNC(=O)c2ccc3c(c2)nc(C(F)(F)F)n3Cc2cc(C#N)ccc2F)cc1 [I-94, 1-(5-cyano-2-fluorobenzyl)-N-(4-(ethylsulfonyl)benzyl)-2-(trifluoromethyl)-1H-benzo[d]imidazole-5-carboxamide]	100 to 1000 nM	< 100 nM
CCS(=O)(=O)c1ccc(CNC(=O)c2ccc3c(c2)nc(C(F)(F)F)n3Cc2cccc3occc23)cc1 [I-95, 1-(benzofuran-4-ylmethyl)-N-(4-(ethylsulfonyl)benzyl)-2-(trifluoromethyl)-1H-benzo[d]imidazole-5-carboxamide]	< 100 nM	< 100 nM
CCS(=O)(=O)c1ccc(CNC(=O)c2ccc3c(c2)nc(C(F)(F)F)n3Cc2cccc3[nH]ncc23)cc1 [I-97, 1-((1H-indazol-4-yl)methyl)-N-(4-(ethylsulfonyl)benzyl)-2-(trifluoromethyl)-1H-benzo[d]imidazole-5-carboxamide]	< 100 nM	< 100 nM
CCS(=O)(=O)c1ccc(CNC(=O)c2ccc3c(c2)nc(C(F)(F)F)n3Cc2cccc3c2OCO3)cc1 [I-98, 1-(benzo[d][1,3]dioxol-4-ylmethyl)-N-(4-(ethylsulfonyl)benzyl)-2-(trifluoromethyl)-1H-benzo[d]imidazole-5-carboxamide]	< 100 nM	< 100 nM
CCS(=O)(=O)c1ccc(CNC(=O)c2ccc3c(c2)nc(C(F)(F)F)n3Cc2cccc(C(=O)OC)c2)cc1 [I-99, methyl 3-((5-((4-(ethylsulfonyl)benzyl)carbamoyl)-2-(trifluoromethyl)-1H-benzo[d]imidazol-1-yl)methyl)benzoate]	100 to 1000 nM	< 100 nM
CCS(=O)(=O)c1ccc(CNC(=O)c2ccc3c(c2)nc(C(F)(F)F)n3Cc2cncc3[nH]ccc23)cc1 [I-100, 1-((1H-pyrrolo[2,3-c]pyridin-4-yl)methyl)-N-(4-(ethylsulfonyl)benzyl)-2-(trifluoromethyl)-1H-benzo[d]imidazole-5-carboxamide]	100 to 1000 nM	< 100 nM
CCS(=O)(=O)c1ccc([C@H](CO)NC(=O)c2ccc3c(c2)nc(C2CC2)n3Cc2cccc3c2OC(C)(C)C3)cc1 [I-101, (R)-2-cyclopropyl-1-((2,2-dimethyl-2,3-dihydrobenzofuran-7-yl)methyl)-N-(1-(4-(ethylsulfonyl)phenyl)-2-hydroxyethyl)-1H-benzo[d]imidazole-5-carboxamide]	> 1000 nM	< 100 nM
CCS(=O)(=O)c1ccc([C@H](CO)NC(=O)c2ccc3c(c2)nc(C2CC2)n3Cc2cccc3c2OCC3)cc1 [I-102, (R)-2-cyclopropyl-1-((2,3-dihydrobenzofuran-7-yl)methyl)-N-(1-(4-(ethylsulfonyl)phenyl)-2-hydroxyethyl)-1H-benzo[d]imidazole-5-carboxamide]	< 100 nM	< 100 nM
CCS(=O)(=O)c1ccc(CNC(=O)c2ccc3c(c2)nc(C2CC2)n3Cc2cc(OC)cc(OC)c2)cc1 [I-103, 2-cyclopropyl-1-(3,5-dimethoxybenzyl)-N-(4-(ethylsulfonyl)benzyl)-1H-benzo[d]imidazole-5-carboxamide]	100 to 1000 nM	< 100 nM
CCS(=O)(=O)c1ccc(CNC(=O)c2ccc3c(c2)nc(C2CC2)n3Cc2ccc(OC(F)(F)F)cc2)cc1 [I-104, 2-cyclopropyl-N-(4-(ethylsulfonyl)benzyl)-1-(4-(trifluoromethoxy)benzyl)-1H-benzo[d]imidazole-5-carboxamide]	> 1000 nM	< 100 nM
CCS(=O)(=O)c1ccc(CNC(=O)c2ccc3c(c2)nc(C2CC2)n3Cc2ccccc2OC(F)(F)F)cc1 [I-106, 2-cyclopropyl-N-(4-(ethylsulfonyl)benzyl)-1-(2-(trifluoromethoxy)benzyl)-1H-benzo[d]imidazole-5-carboxamide]	100 to 1000 nM	< 100 nM
CCS(=O)(=O)c1ccc(CNC(=O)c2ccc3c(c2)nc(C2CC2)n3Cc2cccc(OC(F)(F)F)c2)cc1 [I-109, 2-cyclopropyl-N-(4-(ethylsulfonyl)benzyl)-1-(3-(trifluoromethoxy)benzyl)-1H-benzo[d]imidazole-5-carboxamide]	< 100 nM	< 100 nM
CCS(=O)(=O)c1ccc(CNC(=O)c2ccc3c(c2)nc(C2CC2)n3Cc2cccc(OC(F)F)c2)cc1 [I-113, 2-cyclopropyl-1-(3-(difluoromethoxy)benzyl)-N-(4-(ethylsulfonyl)benzyl)-1H-benzo[d]imidazole-5-carboxamide]	< 100 nM	< 100 nM
CCS(=O)(=O)c1ccc(CNC(=O)c2ccc3c(c2)nc(C2CC2)n3Cc2cc(OC)cc(OC(F)(F)F)c2)cc1 [I-115, 2-cyclopropyl-N-(4-(ethylsulfonyl)benzyl)-1-(3-methoxy-5-(trifluoromethoxy)benzyl)-1H-benzo[d]imidazole-5-carboxamide]	< 100 nM	< 100 nM
CCS(=O)(=O)c1ccc(CNC(=O)c2ccc3c(c2)nc(C2CC2)n3[C@@H](C)c2cccc3c2OC(F)(F)O3)cc1 [I-116, (S)-2-cyclopropyl-1-(1-(2,2-difluorobenzo[d][1,3]dioxol-4-yl)ethyl)-N-(4-(ethylsulfonyl)benzyl)-1H-benzo[d]imidazole-5-carboxamide]	< 100 nM	< 100 nM
CCS(=O)(=O)c1ccc(CNC(=O)c2ccc3c(c2)nc(C2CC2)n3Cc2cccc3c2OC(C)(C)C3)cc1 [I-118, 2-cyclopropyl-1-((2,2-dimethyl-2,3-dihydrobenzofuran-7-yl)methyl)-N-(4-(ethylsulfonyl)benzyl)-1H-benzo[d]imidazole-5-carboxamide]	> 1000 nM	< 100 nM
CCS(=O)(=O)c1ccc(CNC(=O)c2ccc3c(c2)nc(C2CC2)n3Cc2cccc(OC)c2OC)cc1 [I-119, 2-cyclopropyl-1-(2,3-dimethoxybenzyl)-N-(4-(ethylsulfonyl)benzyl)-1H-benzo[d]imidazole-5-carboxamide]	< 100 nM	< 100 nM
O=C(O)CC1CCC(CNC(=O)c2ccc3c(c2)nc(C(F)(F)F)n3Cc2cccc3c2OC(F)(F)O3)CC1 (stereo not drawn) [I-120, 2-(4-((1-((2,2-difluorobenzo[d][1,3]dioxol-4-yl)methyl)-2-(trifluoromethyl)-1H-benzo[d]imidazole-5-carboxamido)methyl)cyclohexyl)acetic acid]	100 to 1000 nM	< 100 nM
N#Cc1ccc([C@H](CO)NC(=O)c2ccc3c(c2)nc(C(F)(F)F)n3Cc2cccc3c2OC(F)(F)O3)cc1 [I-122, (R)-N-(1-(4-cyanophenyl)-2-hydroxyethyl)-1-((2,2-difluorobenzo[d][1,3]dioxol-4-yl)methyl)-2-(trifluoromethyl)-1H-benzo[d]imidazole-5-carboxamide]	< 100 nM	< 100 nM
CCS(=O)(=O)c1ccc([C@H](CO)NC(=O)c2ccc3c(c2)nc(C(F)(F)F)n3Cc2cccc3c2OC(F)(F)O3)c(F)c1 [I-123, (R)-1-((2,2-difluorobenzo[d][1,3]dioxol-4-yl)methyl)-N-(1-(4-(ethylsulfonyl)-2-fluorophenyl)-2-hydroxyethyl)-2-(trifluoromethyl)-1H-benzo[d]imidazole-5-carboxamide]	< 100 nM	< 100 nM
COc1cc(Cn2c(C(F)(F)F)nc3cc(C(=O)NCc4ccc(S(=O)(=O)CCO)cc4)ccc32)cc(OC)c1 [I-124, 1-(3,5-dimethoxybenzyl)-N-(4-((2-hydroxyethyl)sulfonyl)benzyl)-2-(trifluoromethyl)-1H-benzo[d]imidazole-5-carboxamide]	> 1000 nM	< 100 nM
CCc1nc2cc(C(=O)NCc3ccc(S(=O)(=O)CC)cc3)ccc2n1[C@@H](C)c1cccc2c1OC(F)(F)O2 [I-125.1, (S)-1-(1-(2,2-difluorobenzo[d][1,3]dioxol-4-yl)ethyl)-2-ethyl-N-(4-(ethylsulfonyl)benzyl)-1H-benzo[d]imidazole-5-carboxamide]	> 1000 nM	< 100 nM
CCc1nc2cc(C(=O)NCc3ccc(S(=O)(=O)CC)cc3)ccc2n1[C@H](C)c1cccc2c1OC(F)(F)O2 [I-125.2, (R)-1-(1-(2,2-difluorobenzo[d][1,3]dioxol-4-yl)ethyl)-2-ethyl-N-(4-(ethylsulfonyl)benzyl)-1H-benzo[d]imidazole-5-carboxamide]	< 100 nM	< 100 nM
CCS(=O)(=O)c1ccc(CNC(=O)c2ccc3c(c2)nc(C(F)(F)F)n3Cc2cccc3c2OC(F)(F)O3)c(O)c1 [I-126, 1-((2,2-difluorobenzo[d][1,3]dioxol-4-yl)methyl)-N-(4-(ethylsulfonyl)-2-hydroxybenzyl)-2-(trifluoromethyl)-1H-benzo[d]imidazole-5-carboxamide]	< 100 nM	< 100 nM
